# Assay results reported in the supplement of paper PMC10307832.
# Experiments:
# Assay in all cases: relative viability (nuclei count vs DMSO), 5 days (fraction); higher = more cells survive
# [1] = test system: 201T
# Method in brief: (§1)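 Relative viability equals treated-well nuclei counts divided by vehicle-well nuclei counts. Counts came from 4× images of lung cancer cell lines grown in 1536-well plates for 5 days after pin-tool dosing on the day after seeding. Dosing used one drug alone or a fixed anchor-drug dose plus five library-drug doses (not always all listed) in √10 steps, and values are medians of duplicate plates.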
# [2] = test system: A-427
# Method in brief: as §1
# [3] = test system: COR-L23
# Method in brief: as §1
# [4] = test system: HARA
# Method in brief: as §1
# [5] = test system: HCC-15
# Method in brief: as §1
# [6] = test system: HCC-366
# Method in brief: as §1
# [7] = test system: HCC-44
# Method in brief: as §1
# [8] = test system: HCC-78
# Method in brief: as §1
# [9] = test system: LCLC-103H
# Method in brief: as §1
# [10] = test system: LCLC-97TM1
# Method in brief: as §1
# [11] = test system: LOU-NH91
# Method in brief: as §1
# [12] = test system: NCI-H1734
# Method in brief: as §1
# [13] = test system: NCI-H1993
# Method in brief: as §1
# [14] = test system: NCI-H2009
# Method in brief: as §1
# [15] = test system: NCI-H2023
# Method in brief: as §1
# [16] = test system: NCI-H2126
# Method in brief: as §1
# [17] = test system: NCI-H441
# Method in brief: as §1
# [18] = test system: NCI-H460
# Method in brief: as §1
# [19] = test system: NCI-H650
# Method in brief: as §1
# [20] = test system: RERF-LC-KJ
# Method in brief: as §1
# [21] = test system: SW 1573
# Method in brief: as §1
compound,measurement,setting,value
O=c1[nH]c2ccccc2n1C1CCN(CCCC(c2ccc(F)cc2)c2ccc(F)cc2)CC1 [Pimozide] + C[C@]1(O)C[C@@H](c2nc(-c3ccc4ccc(-c5ccccc5)nc4c3)c3c(N)nccn32)C1 [Linsitinib] (partner 1 µM),relative viability,[1]; first compound 0.08 µM,1
same,relative viability,[1]; first compound 0.253 µM,1.01
same,relative viability,[1]; first compound 0.8 µM,1
same,relative viability,[1]; first compound 2.53 µM,1.05
same,relative viability,[1]; first compound 8 µM,0.884
same,relative viability,[2]; first compound 0.08 µM,0.985
same,relative viability,[2]; first compound 0.253 µM,1.14
same,relative viability,[2]; first compound 0.8 µM,1.13
same,relative viability,[2]; first compound 2.53 µM,1.15
same,relative viability,[2]; first compound 8 µM,1.08
same,relative viability,[3]; first compound 0.08 µM,0.956
same,relative viability,[3]; first compound 0.253 µM,0.76
same,relative viability,[3]; first compound 0.8 µM,0.832
same,relative viability,[3]; first compound 2.53 µM,0.887
same,relative viability,[3]; first compound 8 µM,0.84
same,relative viability,[4]; first compound 0.08 µM,0.944
same,relative viability,[4]; first compound 0.253 µM,0.981
same,relative viability,[4]; first compound 0.8 µM,0.823
same,relative viability,[4]; first compound 2.53 µM,0.92
same,relative viability,[4]; first compound 8 µM,0.748
same,relative viability,[5]; first compound 0.08 µM,0.91
same,relative viability,[5]; first compound 0.253 µM,0.911
same,relative viability,[5]; first compound 0.8 µM,0.847
same,relative viability,[5]; first compound 2.53 µM,0.744
same,relative viability,[5]; first compound 8 µM,0.796
same,relative viability,[6]; first compound 0.08 µM,0.747
same,relative viability,[6]; first compound 0.253 µM,0.67
same,relative viability,[6]; first compound 0.8 µM,0.7
same,relative viability,[6]; first compound 2.53 µM,0.754
same,relative viability,[6]; first compound 8 µM,0.677
same,relative viability,[7]; first compound 0.08 µM,0.635
same,relative viability,[7]; first compound 0.253 µM,0.703
same,relative viability,[7]; first compound 0.8 µM,0.64
same,relative viability,[7]; first compound 2.53 µM,0.653
same,relative viability,[7]; first compound 8 µM,0.685
same,relative viability,[8]; first compound 0.08 µM,0.531
same,relative viability,[8]; first compound 0.253 µM,0.469
same,relative viability,[8]; first compound 0.8 µM,0.549
same,relative viability,[8]; first compound 2.53 µM,0.46
same,relative viability,[8]; first compound 8 µM,0.536
same,relative viability,[9]; first compound 0.08 µM,1.01
same,relative viability,[9]; first compound 0.253 µM,1.02
same,relative viability,[9]; first compound 0.8 µM,1
same,relative viability,[9]; first compound 2.53 µM,1.07
same,relative viability,[9]; first compound 8 µM,1.38
same,relative viability,[10]; first compound 0.08 µM,0.179
same,relative viability,[10]; first compound 0.253 µM,0.166
same,relative viability,[10]; first compound 0.8 µM,0.171
same,relative viability,[10]; first compound 2.53 µM,0.169
same,relative viability,[10]; first compound 8 µM,0.146
same,relative viability,[11]; first compound 0.08 µM,0.488
same,relative viability,[11]; first compound 0.253 µM,0.97
same,relative viability,[11]; first compound 0.8 µM,0.929
same,relative viability,[11]; first compound 2.53 µM,1.1
same,relative viability,[11]; first compound 8 µM,0.959
same,relative viability,[12]; first compound 0.08 µM,0.88
same,relative viability,[12]; first compound 0.253 µM,0.829
same,relative viability,[12]; first compound 0.8 µM,0.878
same,relative viability,[12]; first compound 2.53 µM,0.944
same,relative viability,[12]; first compound 8 µM,0.972
same,relative viability,[13]; first compound 0.08 µM,0.662
same,relative viability,[13]; first compound 0.253 µM,0.659
same,relative viability,[13]; first compound 0.8 µM,0.571
same,relative viability,[13]; first compound 2.53 µM,0.725
same,relative viability,[13]; first compound 8 µM,0.755
same,relative viability,[14]; first compound 0.08 µM,1.19
same,relative viability,[14]; first compound 0.253 µM,1.21
same,relative viability,[14]; first compound 0.8 µM,1.2
same,relative viability,[14]; first compound 2.53 µM,1.2
same,relative viability,[14]; first compound 8 µM,1.01
same,relative viability,[15]; first compound 0.08 µM,0.613
same,relative viability,[15]; first compound 0.253 µM,0.654
same,relative viability,[15]; first compound 0.8 µM,0.61
same,relative viability,[15]; first compound 2.53 µM,0.667
same,relative viability,[15]; first compound 8 µM,0.443
same,relative viability,[16]; first compound 0.08 µM,0.747
same,relative viability,[16]; first compound 0.253 µM,0.662
same,relative viability,[16]; first compound 0.8 µM,0.713
same,relative viability,[16]; first compound 2.53 µM,0.74
same,relative viability,[16]; first compound 8 µM,0.774
same,relative viability,[17]; first compound 0.08 µM,0.496
same,relative viability,[17]; first compound 0.253 µM,0.53
same,relative viability,[17]; first compound 0.8 µM,0.752
same,relative viability,[17]; first compound 2.53 µM,0.483
same,relative viability,[17]; first compound 8 µM,0.389
same,relative viability,[18]; first compound 0.08 µM,0.964
same,relative viability,[18]; first compound 0.253 µM,0.725
same,relative viability,[18]; first compound 0.8 µM,0.707
same,relative viability,[18]; first compound 2.53 µM,0.727
same,relative viability,[18]; first compound 8 µM,0.649
same,relative viability,[19]; first compound 0.08 µM,0.842
same,relative viability,[19]; first compound 0.253 µM,0.792
same,relative viability,[19]; first compound 0.8 µM,0.911
same,relative viability,[19]; first compound 2.53 µM,0.791
same,relative viability,[19]; first compound 8 µM,0.847
same,relative viability,[20]; first compound 0.08 µM,0.885
same,relative viability,[20]; first compound 0.253 µM,0.813
same,relative viability,[20]; first compound 0.8 µM,0.787
same,relative viability,[20]; first compound 2.53 µM,0.842
same,relative viability,[20]; first compound 8 µM,0.8
same,relative viability,[21]; first compound 0.08 µM,0.744
same,relative viability,[21]; first compound 0.253 µM,0.778
same,relative viability,[21]; first compound 0.8 µM,0.75
same,relative viability,[21]; first compound 2.53 µM,0.721
same,relative viability,[21]; first compound 8 µM,0.853
